# Results taken from BindingDB's records for doi:10.1080/14756360802218334 (Cardiff University, 2009).
# Molecular target: T1, Cytochrome P450 26A1 (Homo sapiens, UniProt O43174)
# T1 sequence (O43174 whole entry): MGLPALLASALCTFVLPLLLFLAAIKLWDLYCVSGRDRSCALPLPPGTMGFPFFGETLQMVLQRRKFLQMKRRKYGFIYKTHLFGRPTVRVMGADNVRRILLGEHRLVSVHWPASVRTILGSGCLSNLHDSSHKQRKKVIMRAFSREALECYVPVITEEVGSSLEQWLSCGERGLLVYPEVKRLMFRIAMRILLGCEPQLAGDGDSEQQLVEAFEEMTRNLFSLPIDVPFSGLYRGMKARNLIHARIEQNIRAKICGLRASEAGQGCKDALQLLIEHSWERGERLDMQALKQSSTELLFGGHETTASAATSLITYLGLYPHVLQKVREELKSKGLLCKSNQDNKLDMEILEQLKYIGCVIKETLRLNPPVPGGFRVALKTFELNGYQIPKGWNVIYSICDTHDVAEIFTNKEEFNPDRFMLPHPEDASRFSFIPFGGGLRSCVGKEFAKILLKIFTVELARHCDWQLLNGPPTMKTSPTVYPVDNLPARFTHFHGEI
# Assay: Cell Assay
row,SMILES,IC50 [µM]
1,"c1ccc(C(c2ccc(Nc3nc4ccccc4o3)cc2)n2cncn2)cc1 (centres undefined) [1H-1,2,4-triazole, 11]",18
2,"c1ccc(C(c2ccc(Nc3nc4ccccc4o3)cc2)n2cnnc2)cc1 (centres undefined) [1H-1,2,4-triazole, 12]",> 20
3,"c1ccc(C(c2ccc(Nc3nc4ccccc4o3)cc2)n2cnnn2)cc1 (centres undefined) [1H-tetrazole, 13]",> 20
4,"Fc1ccc(C(c2ccc(Nc3nc4ccccc4o3)cc2)n2ccnc2)cc1 (centres undefined) [Oxazolamine derivative, 5a]",35
5,"COC(=O)c1ccc(C(c2ccc(Nc3nc4ccccc4o3)cc2)n2ccnc2)cc1 (centres undefined) [Oxazolamine derivative, 5c]",20
6,"O=C(O)c1ccc(C(c2ccc(Nc3nc4ccccc4o3)cc2)n2ccnc2)cc1 (centres undefined) [Oxazolamine derivative, 5d]",50
7,"COc1ccc(C(c2ccc(Nc3nc4ccccc4o3)cc2)n2ccnc2)cc1 (centres undefined) [Oxazolamine derivative, 5e]",> 20
8,"Oc1ccc(C(c2ccc(Nc3nc4ccccc4o3)cc2)n2ccnc2)cc1 (centres undefined) [Oxazolamine derivative, 5f]",12
9,CCC(CC)C(c1ccc(Nc2nc3ccccc3s2)cc1)n1cncn1 (centres undefined) [R115866],0.005
